Experimental findings from patent US20250129070A1, “BIFUNCTIONAL ANDROGEN RECEPTOR COMPOUNDS” (priority 2023, published 2025) are described below.

In assay [1] the test system is VCaP cells. Briefly: VCaP growth inhibition assay. The format is cell-based. Particulars: 30 pM R1881, 9 days, CTG. In outline: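 Growth read by CTG luminescence after 9-day exposure to compound (final 100 nM–10 fM, 1:5 steps) plus 30 pM R1881, in phenol red-free DMEM with 5% CSS. Cells pre-incubated 72 h before dosing; IC50 by nonlinear 4-parameter regression.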
Assay [2] deals with AR / CBP ternary complex. Briefly: Ternary complex formation assay (sandwich ELISA, AR capture / CBP detection) in VCaP cell lysates. The assay is classed as cell-based. Particulars: 1.5 hours treatment, sandwich ELISA (AR capture, CBP or p300 detection). In outline: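 Anti-AR (AR 441)-coated plates capture AR from lysates of VCaP cells grown ≥3 days at 50K/well in 5% charcoal-stripped FBS, dosed with bifunctional for 1.5 h and lysed 30 min at 4 °C. Co-captured CBP/p300 is probed with rabbit mAb and HRP anti-rabbit, then QuantaRed fluorescence (570/585) is read at 0, 5 and 15 min.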

Consider `CC(=O)N1CCc2c(c(N3CCCc4cc(-c5cnn(C)c5)c(C(F)F)cc43)nn2C2CCN(C3CCC4(CC3)CN(c3ncc(C(=O)NC5C(C)(C)C(Oc6ccc(C#N)c(Cl)c6)C5(C)C)cn3)C4)CC2)C1` (stereo not drawn) [Compound 274, 2-[7-[4-[5-acetyl-3-[7-(difluoromethyl)-6-(1-methylpyrazol-4-yl)-3,4-dihydro-2H-quinolin-1-yl]-6,7-dihydro-4H-pyrazolo[4,3-c]pyridin-1-yl]-1-piperidyl]-2-azaspiro[3.5]nonan-2-yl]-N-[3-(3-chloro-4-cyano-phenoxy)-2,2,4,4-tetramethyl-cyclobutyl]pyrimidine-5-carboxamide], for which the IC50 (commonly the concentration at which inhibition is half-maximal) in assay [1] was at most 0.1 nM. For the same compound, in assay [2], the EC50 (usually the concentration at which the effect is half-maximal) was under 1 nM.
`CC(=O)N1CCc2c(c(N3CCCc4cc(-c5cnn(C)c5)c(C(F)F)cc43)nn2C2CCN(C3CN(c4ncc(C(=O)NC5C(C)(C)C(Oc6ccc(C#N)c(Cl)c6)C5(C)C)cn4)C3)CC2)C1` (stereo not drawn) [Compound 333, 2-[3-[4-[5-acetyl-3-[7-(difluoromethyl)-6-(1-methylpyrazol-4-yl)-3,4-dihydro-2H-quinolin-1-yl]-6,7-dihydro-4H-pyrazolo[4,3-c]pyridin-1-yl]-1-piperidyl]azetidin-1-yl]-N-[3-(3-chloro-4-cyano-phenoxy)-2,2,4,4-tetramethyl-cyclobutyl]pyrimidine-5-carboxamide] yielded an IC50 in assay [1] of at most 0.1 nM. The same compound came in with a concentration for a half-maximal effect (EC50) in assay [2] of over 100 nM.
In assay [1], `CC(=O)N1CCc2c(c(Nc3ccc(-c4cnn(C)c4)cc3F)nn2C2CN(CCC3CCN(c4ncc(C(=O)NC5C(C)(C)C(Oc6ccc(C#N)c(Cl)c6)C5(C)C)cn4)CC3)C2)C1` (stereo not drawn) [Compound 3, 2-[4-[2-[3-[5-acetyl-3-[2-fluoro-4-(1-methylpyrazol-4-yl)anilino]-6,7-dihydro-4H-pyrazolo[4,3-c]pyridin-1-yl]azetidin-1-yl]ethyl]-1-piperidyl]-N-[3-(3-chloro-4-cyano-phenoxy)-2,2,4,4-tetramethyl-cyclobutyl]pyrimidine-5-carboxamide] returned an IC50 of over 100 nM. The compound also gave a concentration giving a half-maximal response (EC50) in assay [2] of over 100 nM.
In turn, `COc1cc(OC2C(C)(C)C(NC(=O)c3ccc(N4CCC5(CC4)CC4(CC(n6nc(N7CCCc8cc(-c9cnn(C)c9)c(C(F)F)cc87)c7c6CCN(C(C)=O)C7)C4)C5)cc3)C2(C)C)ccc1C#N` (stereo not drawn) [Compound 286, 4-[2-[5-acetyl-3-[7-(difluoromethyl)-6-(1-methylpyrazol-4-yl)-3,4-dihydro-2H-quinolin-1-yl]-6,7-dihydro-4H-pyrazolo[4,3-c]pyridin-1-yl]-9-azadispiro[3.1.5^6.1^4]dodecan-9-yl]-N-[3-(4-cyano-3-methoxy-phenoxy)-2,2,4,4-tetramethyl-cyclobutyl]benzamide] came in with a 50% inhibitory concentration (IC50) in assay [1] of 1 to 100 nM. The compound further gave a half-maximal effective concentration (EC50) in assay [2] of over 100 nM.
`CC(=O)N1CCc2c(c(N3CCCc4cc(-c5cnn(C)c5)c(C(F)F)cc43)nn2CCCOc2ncc(C(=O)NC3C(C)(C)C(Oc4ccc(C#N)c(Cl)c4)C3(C)C)cn2)C1` (stereo not drawn) [Compound 43, 2-[3-[5-acetyl-3-[7-(difluoromethyl)-6-(1-methylpyrazol-4-yl)-3,4-dihydro-2H-quinolin-1-yl]-6,7-dihydro-4H-pyrazolo[4,3-c]pyridin-1-yl]propoxy]-N-[3-(3-chloro-4-cyano-phenoxy)-2,2,4,4-tetramethyl-cyclobutyl]pyrimidine-5-carboxamide] gave an IC50 in assay [1] of over 100 nM. Also, the EC50 in assay [2] was over 100 nM.
Compound `CC(=O)N1CCc2c(c(-c3cccc4cc(-c5ccc(CC6CC7(C6)CN(c6ncc(C(=O)NC8C(C)(C)C(Oc9ccc(C#N)c(Cl)c9)C8(C)C)cn6)C7)nc5)ncc34)nn2C)C1` (stereo not drawn) [Compound 230, 2-[6-[[5-[8-(5-acetyl-1-methyl-6,7-dihydro-4H-pyrazolo[4,3-c]pyridin-3-yl)-3-isoquinolyl]-2-pyridyl]methyl]-2-azaspiro[3.3]heptan-2-yl]-N-[3-(3-chloro-4-cyano-phenoxy)-2,2,4,4-tetramethyl-cyclobutyl]pyrimidine-5-carboxamide] showed an IC50 in assay [1] of 0.1 to 1 nM. This compound also yielded a half-maximal effective concentration (EC50) in assay [2] of 10 to 100 nM.
`CC(=O)N1CCc2c(c(-c3cccc4cc(-c5cnn(C6CCN(C7CCN(c8ncc(C(=O)NC9C(C)(C)C(Oc%10ccc(C#N)c(Cl)c%10)C9(C)C)cn8)CC7)C6)c5)ncc34)nn2C2CCOCC2)C1` (stereo not drawn) [Compound 222, 2-[4-[3-[4-[8-(5-acetyl-1-tetrahydropyran-4-yl-6,7-dihydro-4H-pyrazolo[4,3-c]pyridin-3-yl)-3-isoquinolyl]pyrazol-1-yl]pyrrolidin-1-yl]-1-piperidyl]-N-[3-(3-chloro-4-cyano-phenoxy)-2,2,4,4-tetramethyl-cyclobutyl]pyrimidine-5-carboxamide]: the 50% inhibitory concentration (IC50) in assay [1] is 0.1 to 1 nM. Moreover, in assay [2], the EC50 is under 1 nM.
`CC(=O)N1CCc2c(c(N3CCCc4cc(-c5cnn(C)c5)c(C(F)F)cc43)nn2C2CCN(CC3CCN(c4ncc(C(=O)NC5C(C)(C)C(Oc6ccc(C#N)c(Cl)c6)C5(C)C)nn4)CC3)CC2)C1` (stereo not drawn) [Compound 152]: the IC50 in assay [1] is at most 0.1 nM. In assay [2], this compound came in with an EC50 of over 100 nM.
`CC(=O)N1CCc2c(c(N3CCCc4cc(-c5cnn(C)c5)c(C(F)F)cc43)nn2C2CCN(C3CC(Oc4ncc(C(=O)NC5C(C)(C)C(Oc6ccc(C#N)c(Cl)c6)C5(C)C)cn4)C3)CC2)C1` (stereo not drawn) [Compound 376, 2-[3-[4-[5-acetyl-3-[7-(difluoromethyl)-6-(1-methylpyrazol-4-yl)-3,4-dihydro-2H-quinolin-1-yl]-6,7-dihydro-4H-pyrazolo[4,3-c]pyridin-1-yl]-1-piperidyl]cyclobutoxy]-N-[3-(3-chloro-4-cyano-phenoxy)-2,2,4,4-tetramethyl-cyclobutyl]pyrimidine-5-carboxamide] registered an IC50 in assay [1] of 0.1 to 1 nM. In assay [2], the EC50 was under 1 nM.
Compound `CC(=O)N1CCc2c(c(N3CCCc4cc(-c5cnn(C)c5)c(C(F)F)cc43)nn2C2CC3(C2)CC2(CCN(c4ncc(C(=O)NC5C(C)(C)C(Oc6ccc(C#N)c(Cl)c6)C5(C)C)cn4)CC2)C3)C1` (stereo not drawn) [Compound 287, 2-[2-[5-acetyl-3-[7-(difluoromethyl)-6-(1-methylpyrazol-4-yl)-3,4-dihydro-2H-quinolin-1-yl]-6,7-dihydro-4H-pyrazolo[4,3-c]pyridin-1-yl]-9-azadispiro[3.1.5^6.1^4]dodecan-9-yl]-N-[3-(3-chloro-4-cyano-phenoxy)-2,2,4,4-tetramethyl-cyclobutyl]pyrimidine-5-carboxamide] showed an IC50 in assay [1] of 1 to 100 nM. This compound had a concentration giving a half-maximal response (EC50) in assay [2] of 1 to 10 nM.
Compound `CC(=O)N1CCc2c(c(N3CCCc4cc(-c5cnn(C)c5)c(C(F)F)cc43)nn2CC2CCN(c3ncc(C(=O)NC4C(C)(C)C(Oc5ccc(C#N)c(Cl)c5)C4(C)C)cn3)CC2)C1` (stereo not drawn) [Compound 53, 2-[4-[[5-acetyl-3-[7-(difluoromethyl)-6-(1-methylpyrazol-4-yl)-3,4-dihydro-2H-quinolin-1-yl]-6,7-dihydro-4H-pyrazolo[4,3-c]pyridin-1-yl]methyl]-1-piperidyl]-N-[3-(3-chloro-4-cyano-phenoxy)-2,2,4,4-tetramethyl-cyclobutyl]pyrimidine-5-carboxamide] displayed an IC50 in assay [1] of over 100 nM. Moreover, in assay [2], the half-maximal effective concentration (EC50) is under 1 nM.
With `CC(=O)N1CCc2c(c(Nc3ccc(-c4cnn(C)c4)cc3F)nn2C2CCN(C(=O)COC3CCN(c4ncc(C(=O)NC5C(C)(C)C(Oc6ccc(C#N)c(Cl)c6)C5(C)C)cn4)CC3)CC2)C1` (stereo not drawn) [Compound 177, 2-[4-[2-[4-[5-acetyl-3-[2-fluoro-4-(1-methylpyrazol-4-yl)anilino]-6,7-dihydro-4H-pyrazolo[4,3-c]pyridin-1-yl]-1-piperidyl]-2-oxo-ethoxy]-1-piperidyl]-N-[3-(3-chloro-4-cyano-phenoxy)-2,2,4,4-tetramethyl-cyclobutyl]pyrimidine-5-carboxamide], the half-inhibitory concentration (IC50) in assay [1] was over 100 nM. The compound further displayed a 50% effective concentration (EC50) in assay [2] of under 1 nM.
As to `COc1cc(OC2C(C)(C)C(NC(=O)c3ccc(N4CCC(OC5CCC(n6nc(N7CCCc8cc(-c9cnn(C)c9)c(C(F)F)cc87)c7c6CCN(C(C)=O)C7)CC5)CC4)cc3)C2(C)C)ccc1C#N` (stereo not drawn) [Compound 309, 4-[4-[4-[5-acetyl-3-[7-(difluoromethyl)-6-(1-methylpyrazol-4-yl)-3,4-dihydro-2H-quinolin-1-yl]-6,7-dihydro-4H-pyrazolo[4,3-c]pyridin-1-yl]cyclohexoxy]-1-piperidyl]-N-[3-(4-cyano-3-methoxy-phenoxy)-2,2,4,4-tetramethyl-cyclobutyl]benzamide], the IC50 in assay [1] fell in the range of 0.1 to 1 nM. This compound also returned a concentration giving a half-maximal response (EC50) in assay [2] of under 1 nM.
As to `CC(=O)N1CCc2c(c(N3CCCc4cc(-c5cnn(C)c5)c(C(F)F)cc43)nn2C2CCN(C3CCN(c4ncc(C(=O)NC5C(C)(C)C(Oc6ccc(C#N)c(Cl)c6)C5(C)C)cn4)CC3)C2)C1` (stereo not drawn) [Compound 12, 2-[4-[3-[5-acetyl-3-[7-(difluoromethyl)-6-(1-methylpyrazol-4-yl)-3,4-dihydro-2H-quinolin-1-yl]-6,7-dihydro-4H-pyrazolo[4,3-c]pyridin-1-yl]pyrrolidin-1-yl]-1-piperidyl]-N-[3-(3-chloro-4-cyano-phenoxy)-2,2,4,4-tetramethyl-cyclobutyl]pyrimidine-5-carboxamide], the IC50 in assay [1] is 1 to 100 nM. The compound also came in with a 50% effective concentration (EC50) in assay [2] of 1 to 10 nM.
Consider `COc1cc(OC2C(C)(C)C(NC(=O)c3ccc(N4CC5CC4CC5CN4CCC(n5nc(N6CCCc7cc(-c8cnn(C)c8)c(C(F)F)cc76)c6c5CCN(C(C)=O)C6)CC4)cc3)C2(C)C)ccc1C#N` (stereo not drawn) [Compound 255, 4-[5-[[4-[5-acetyl-3-[7-(difluoromethyl)-6-(1-methylpyrazol-4-yl)-3,4-dihydro-2H-quinolin-1-yl]-6,7-dihydro-4H-pyrazolo[4,3-c]pyridin-1-yl]-1-piperidyl]methyl]-2-azabicyclo[2.2.1]heptan-2-yl]-N-[3-(4-cyano-3-methoxy-phenoxy)-2,2,4,4-tetramethyl-cyclobutyl]benzamide], for which the half-inhibitory concentration (IC50) in assay [1] fell in the range of 0.1 to 1 nM. This compound had an EC50 in assay [2] of under 1 nM.
